Data set [1] has as its target T1, Steroid 17-alpha-hydroxylase/17,20 lyase (Homo sapiens, UniProt P05093).
T1 sequence (P05093 whole entry): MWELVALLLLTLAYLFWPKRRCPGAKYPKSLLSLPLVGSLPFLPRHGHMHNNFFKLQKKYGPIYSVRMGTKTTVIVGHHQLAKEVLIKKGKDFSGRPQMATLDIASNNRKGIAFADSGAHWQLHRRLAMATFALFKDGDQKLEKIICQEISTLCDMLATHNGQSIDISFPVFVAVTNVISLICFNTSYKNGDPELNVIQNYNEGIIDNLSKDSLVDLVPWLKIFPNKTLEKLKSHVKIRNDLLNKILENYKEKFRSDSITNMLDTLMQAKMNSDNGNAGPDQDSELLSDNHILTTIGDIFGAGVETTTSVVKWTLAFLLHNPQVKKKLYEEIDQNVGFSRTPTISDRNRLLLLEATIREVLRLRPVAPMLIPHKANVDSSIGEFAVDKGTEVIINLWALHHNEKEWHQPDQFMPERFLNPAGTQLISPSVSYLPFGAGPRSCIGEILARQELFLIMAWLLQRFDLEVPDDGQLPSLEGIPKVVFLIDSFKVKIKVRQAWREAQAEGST

Data set [2] addresses T2, Aromatase (Homo sapiens, UniProt P11511).
T2 sequence (P11511 whole entry): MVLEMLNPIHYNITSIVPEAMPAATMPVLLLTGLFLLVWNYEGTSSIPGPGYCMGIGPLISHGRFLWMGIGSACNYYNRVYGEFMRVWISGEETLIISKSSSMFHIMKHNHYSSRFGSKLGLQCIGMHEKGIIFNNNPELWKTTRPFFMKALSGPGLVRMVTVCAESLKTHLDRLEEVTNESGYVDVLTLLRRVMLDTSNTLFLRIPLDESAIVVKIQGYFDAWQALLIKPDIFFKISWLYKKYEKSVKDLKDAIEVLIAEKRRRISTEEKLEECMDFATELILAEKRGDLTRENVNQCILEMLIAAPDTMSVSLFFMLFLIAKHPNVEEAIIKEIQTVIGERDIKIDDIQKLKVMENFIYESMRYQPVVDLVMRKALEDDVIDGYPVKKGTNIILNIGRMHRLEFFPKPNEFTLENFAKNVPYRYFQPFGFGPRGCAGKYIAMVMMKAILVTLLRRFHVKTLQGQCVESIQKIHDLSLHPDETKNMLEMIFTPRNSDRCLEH

In data set [3] the target is T1, Steroid 17-alpha-hydroxylase/17,20 lyase. This is another data set of the same source.
For data set [4], the species on record is Homo sapiens.

Structures are written as SMILES. pIC50: −log10 of the molar value.

This note sets out measurements from ChEMBL document CHEMBL1134355 (J Med Chem, 2001).

As a reminder, the inhibition is the change of the read-out against control, counted positive when it falls. A higher inhibition goes with a strong effect. Usually pIC50 stands for the negative decadic logarithm of the IC50, by convention in mol/L. What is called Km is the concentration of substrate that gives half-maximal velocity.

Consider `O=c1ccoc2cc(Cn3ccnc3)ccc12`, for which the inhibition at 2.5 µM in data set [1] came out at 9%.

On to `O=c1c2ccccc2oc2cc(Cn3cnnc3)ccc12`, for which the inhibition at 2.5 µM in data set [1] stood at 8%. Also, the inhibition at 25 µM in data set [2] was determined as 27%.

Consider `N#Cc1ccc(Cn2ccnc2)c2oc3ccccc3c(=O)c12`, for which the inhibition at 2.5 µM in data set [1] was 14%.

In data set [1], `O=c1c2ccccc2oc2cc(Cn3ccnc3)ccc12` registered an inhibition at 2.5 µM of 33%.

On to `O=c1ccoc2c(Cn3ccnc3)ccc([N+](=O)[O-])c12`, for which the inhibition at 2.5 µM in data set [1] worked out at 5%.

The compound `O=c1c2ccccc2oc2c([N+](=O)[O-])ccc(Cn3ccnc3)c12` gave an inhibition at 2.5 µM in data set [1] of 94%. In data set [3], this compound had a pIC50 of 6.89.

As for `COc1ccc2c(=O)c(Cn3cnnc3)c(-c3ccccc3)oc2c1`, in data set [1], 2.5 µM produced 14% inhibition. For the same compound, at 25 µM the inhibition in data set [2] was 21%.

For `N#Cc1ccc(Cn2ccnc2)c2c(=O)c3ccccc3oc12`, in data set [1], the inhibition at 2.5 µM is 92%. This compound also showed a pIC50 in data set [3] of 6.66.

The compound `N#Cc1ccc(Cn2ccnc2)c2occc(=O)c12` showed an inhibition at 2.5 µM in data set [1] of 3%.

Regarding `O=c1c2ccccc2oc2c(Br)ccc(Cn3ccnc3)c12`, at 2.5 µM the inhibition in data set [1] was 98%. In data set [3], the pIC50 is 7.38.

Regarding `O=c1ccoc2cc(Cn3cnnc3)ccc12`, testing at 2.5 µM in data set [1] gave an inhibition of 5%.

`COc1ccc2c(=O)c(Cn3ccnc3)c(-c3ccccc3)oc2c1` returned an inhibition at 2.5 µM in data set [1] of 44%.

Take `O=c1c2ccccc2oc2c(Cn3ccnc3)ccc([N+](=O)[O-])c12`: the inhibition at 2.5 µM in data set [1] was 4%. Further, the Km in data set [4] was determined as 65.1 nM.

Consider `O=c1c2ccccc2oc2c(Cn3ccnc3)ccc(Br)c12`, for which 2.5 µM produced 38% inhibition in data set [1].

For `O=c1ccoc2c(Cn3ccnc3)ccc(Br)c12`, in data set [1], the inhibition at 2.5 µM was 26%.
